Drawing on US10723705B2, “Heterocyclic compounds and uses thereof” (Incyte Corporation, priority 2015, dated 2020), this text covers IC50 for 35 molecules.

Where two headings read alike, the source gives them in different places.

In this test the target is Human recombinant Histone Deacetylase 8 (HDAC8) (Homo sapiens (Human), UniProt Q9BY41). Kind of test: HDAC8 Enzymatic Assay (HDAC-Glo I/II luminescence). Format: biochemical. Here is the method: HDAC-Glo™ I/II Assay Kit was purchased from Promega Corporation (Madison, Wis.), including the following components: HDAC-Glo I/II Buffer (25 mM Tris buffer, pH 8.0, supplemented with 137 mM: NaCl, 2.7 mM KCl, 1% v/v Triton X-100 and 1 mM: MgCl2), luminogenic substrates Boc-GAK(Ac)-aminoluciferin (HDAC-Glo I/II substrate), proprietary developer reagent (containing trypsin). Human recombinant Histone Deacetylase 8 (HDAC8) was purchased from Enzo Life Sciences (Plymouth Meeting, Pa.).
Chain of Human recombinant Histone Deacetylase 8 (HDAC8) (Q9BY41 whole entry): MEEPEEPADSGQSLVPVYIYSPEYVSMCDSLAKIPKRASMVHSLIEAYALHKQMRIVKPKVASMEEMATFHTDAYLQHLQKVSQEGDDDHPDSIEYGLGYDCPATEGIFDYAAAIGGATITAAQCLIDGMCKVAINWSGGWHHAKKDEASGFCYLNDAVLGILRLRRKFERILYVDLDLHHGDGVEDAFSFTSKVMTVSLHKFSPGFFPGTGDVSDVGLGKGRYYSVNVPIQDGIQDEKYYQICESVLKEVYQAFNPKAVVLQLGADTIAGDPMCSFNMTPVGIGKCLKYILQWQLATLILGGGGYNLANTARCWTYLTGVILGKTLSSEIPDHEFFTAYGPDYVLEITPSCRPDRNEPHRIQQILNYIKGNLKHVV
The HDAC8 reaction was performed at room temperature in white 384-well polystyrene, flat-bottom microtiter plate (Greiner Bio-one, Monroe, N.C.) in a final volume of 20 μL. Test compounds were first diluted serially in DMSO and 100 nL were transferred to the plate wells by Echo 550 (Labcyte, Sunnyvale, Calif.) before the addition of other reaction components. The final concentration of DMSO in the assay was 0.5%. The HDAC-Glo I/II assay reagent was prepared by rehydration of lyophilized HDAC-Glo I/II substrate in 10 mL. HDAC-Glo I/II assay buffer followed with the addition of 10 μL of developer reagent. 10 uL of 3 nM HDAC8 in the HDAC-Glo I/II assay buffer were first dispensed into the microliter plate containing the compounds and incubated at room temperature for 30 min. The reactions were initiated with the addition of 10 uL HDAC-Glo I/II assay reagent with Multidrop (Thermo, Waltham, Mass.). The final concentration of HDAC8 and HDAC-Glo I/II substrate in the reaction were 1.5 nM and 50 μM, respectively. The assay plate was mixed for 1 min by orbital shaking (500 rpm) and centrifuged for 1 min at 1500 rpm. After 15 min at room temperature, luminescence signals were measured on TopCount (Perkin Elmer). Wells with no compound served as the positive controls and wells containing no HDAC8 were used as negative controls. IC50 determination was performed by fitting the curve of percentage control activity versus the log of the compound concentration using the GraphPad Prism 6.0 software.

The mark [1] stands for this setting: class symbols, Table 14, read-out: HDAC8 IC50.

One may read the IC50 as the concentration needed to halve the response being measured. In the case of `O=C(NO)C(Cc1ccccc1)n1ncc2nc(-c3ccncc3)ccc21` (stereo not drawn) [Compound I-0073, N-hydroxy-3-phenyl-2-(5-(pyridin-4-yl)-1H-pyrazolo[4,3-b]pyridin-1-yl)propanamide], under setting [1], the IC50 lay within 200 to 500 nM. On the same count and under the same terms, in the case of `O=C(NO)C(Cc1ccccc1)n1ncc2nc(-c3cncnc3)ccc21` (stereo not drawn) [Compound I-0074, N-hydroxy-3-phenyl-2-(5-(pyrimidin-5-yl)-1H-pyrazolo[4,3-b]pyridin-1-yl)propanamide] it was 50 to 200 nM; in that of `Cc1ccc2c(cnn2C(Cc2ccccc2)C(=O)NO)n1` (stereo not drawn) [Compound I-0075, N-hydroxy-2-(5-methyl-1H-pyrazolo[4,3-b]pyridin-1-yl)-3-phenylpropanamide], 200 to 500 nM; in that of `O=C(NO)C(Cc1ccccc1)n1ncc2nc(Cl)ccc21` (stereo not drawn) [Compound I-0076, 2-(5-chloro-1H-pyrazolo[4,3-b]pyridin-1-yl)-N-hydroxy-3-phenylpropanamide], 50 to 200 nM.

On to `O=C(NO)C(Cc1ccccc1)n1cc2nc(Cl)ccc2n1` (stereo not drawn) [Compound I-0077, 2-(5-chloro-2H-pyrazolo[4,3-b]pyridin-2-yl)-N-hydroxy-3-phenylpropanamide], for which the IC50 under setting [1] was above 500 nM. The same measure, in the same setting: in the case of `Cc1cccc2cn(C(Cc3ccccc3)C(=O)NO)nc12` (stereo not drawn) [Compound I-0078, N-hydroxy-2-(7-methyl-2H-indazol-2-yl)-3-phenylpropanamide] it was above 500 nM. Still for that read-out and setting: in the case of `O=C(NO)C(Cc1ccccc1)n1ncc2c(-c3ccccc3)cccc21` (stereo not drawn) [Compound I-0079, N-hydroxy-3-phenyl-2-(4-phenyl-1H-indazol-1-yl)propanamide] it was above 500 nM; in that of `NC(=O)c1ccc(-c2cccc3c2cnn3C(Cc2ccccc2)C(=O)NO)cc1` (stereo not drawn) [Compound I-0080, 4-(1-(1-(hydroxyamino)-1-oxo-3-phenylpropan-2-yl)-1H-indazol-4-yl)benzamide], above 500 nM. Same read-out and setting: in the case of `O=C(NO)C(Cc1ccccc1)n1ncc2c(-c3cncnc3)cccc21` (stereo not drawn) [Compound I-0081, N-hydroxy-3-phenyl-2-(4-(pyrimidin-5-yl)-1H-indazol-1-yl)propanamide] it was 50 to 200 nM. As for `O=C(NO)C(Cc1ccccc1)n1cc2cccc(C#CC3CC3)c2n1` (stereo not drawn) [Compound I-0082, 2-(7-(Cyclopropylethynyl)-2H-indazol-2-yl)-N-hydroxy-3-phenylpropanamide], the IC50 under setting [1] lay in the range of 200 to 500 nM. As to `Cn1nccc1-c1cccc2c1cnn2C(Cc1ccccc1)C(=O)NO` (stereo not drawn) [Compound I-0083, N-hydroxy-2-(4-(1-methyl-1H-pyrazol-5-yl)-1H-indazol-1-yl)-3-phenylpropanamide], the half-maximal inhibitory concentration (IC50) under setting [1] fell in the range of 50 to 200 nM. With `Cc1cccc2c1cnn2C(Cc1ccccc1)C(=O)NO` (stereo not drawn) [Compound I-0084, N-hydroxy-2-(4-methyl-1H-indazol-1-yl)-3-phenylpropanamide], under setting [1], the IC50 is above 500 nM. The same measure, in the same setting: in the case of `CN1CC=C(c2cccc3c2cnn3C(Cc2ccccc2)C(=O)NO)CC1` (stereo not drawn) [Compound I-0085, N-hydroxy-2-(4-(1-methyl-1,2,3,6-tetrahydropyridin-4-yl)-1H-indazol-1-yl)-3-phenylpropanamide] it was 200 to 500 nM; in that of `O=C(NO)C(Cc1ccccc1)n1ncc2cc(-c3ccccc3)ncc21` (stereo not drawn) [Compound I-0086, N-hydroxy-3-phenyl-2-(5-phenyl-1H-pyrazolo[3,4-c]pyridin-1-yl)propanamide], above 500 nM; in that of `O=C(NO)C(Cc1ccccc1)n1ncc2cc(-c3c(F)cccc3F)ncc21` (stereo not drawn) [Compound I-0087, 2-(5-(2,6-difluorophenyl)-1H-pyrazolo[3,4-c]pyridin-1-yl)-N-hydroxy-3-phenylpropanamide], above 500 nM. Take `N#Cc1ccc(-c2cc3cnn(C(Cc4ccccc4)C(=O)NO)c3cn2)cc1` (stereo not drawn) [Compound I-0088, 2-(5-(4-cyanophenyl)-1H-pyrazolo[3,4-c]pyridin-1-yl)-N-hydroxy-3-phenylpropanamide]: under setting [1], the concentration for half-maximal inhibition (IC50) is above 500 nM. Still for that read-out and setting: in the case of `NC(=O)c1ccc(-c2cc3cnn(C(Cc4ccccc4)C(=O)NO)c3cn2)cc1` (stereo not drawn) [Compound I-0089, 4-(1-(1-(hydroxyamino)-1-oxo-3-phenylpropan-2-yl)-1H-pyrazolo[3,4-c]pyridin-5-yl)benzamide] it was 200 to 500 nM; in that of `Cn1nccc1-c1cc2cnn(C(Cc3ccccc3)C(=O)NO)c2cn1` (stereo not drawn) [Compound I-0090, N-hydroxy-2-(5-(1-methyl-1H-pyrazol-5-yl)-1H-pyrazolo[3,4-c]pyridin-1-yl)-3-phenylpropanamide], 200 to 500 nM. On the same count and under the same terms, in the case of `Cn1cc(-c2cc3cnn(C(Cc4ccccc4)C(=O)NO)c3cn2)cn1` (stereo not drawn) [Compound I-0091, N-hydroxy-2-(5-(1-methyl-1H-pyrazol-4-yl)-1H-pyrazolo[3,4-c]pyridin-1-yl)-3-phenylpropanamide] it was above 500 nM; in that of `O=C(NO)C(Cc1ccccc1)n1ncc2cc(-c3cncnc3)ncc21` (stereo not drawn) [Compound I-0092, N-hydroxy-3-phenyl-2-(5-(pyrimidin-5-yl)-1H-pyrazolo[3,4-c]pyridin-1-yl)propanamide], 200 to 500 nM. As for `O=C(NO)C(Cc1ccccc1)c1cnc2cc(Cl)ccn12` (stereo not drawn) [Compound I-0093, 2-(7-Chloroimidazo[1,2-a]pyridin-3-yl)-N-hydroxy-3-phenylpropanamide], the half-maximal inhibitory concentration (IC50) runs as follows: (HDAC8, read-out: IC50) 22 nM; under setting [1], at most 50 nM. Take `COc1ncc(-c2cc3cnn(C(Cc4ccccc4)C(=O)NO)c3cn2)cn1` (stereo not drawn) [Compound I-0094, N-hydroxy-2-(5-(2-methoxypyrimidin-5-yl)-1H-pyrazolo[3,4-c]pyridin-1-yl)-3-phenylpropanamide]: the IC50 under setting [1] fell in the range of 200 to 500 nM.

Turning to `O=C(NO)C(Cc1ccccc1)n1ncc2cc(-c3cccnc3)ncc21` (stereo not drawn) [Compound I-0095, N-hydroxy-3-phenyl-2-(5-(pyridin-3-yl)-1H-pyrazolo[3,4-c]pyridin-1-yl)propanamide], the IC50 under setting [1] is 200 to 500 nM.

For `COc1ccc(-c2cc3cnn(C(Cc4ccccc4)C(=O)NO)c3cn2)cn1` (stereo not drawn) [Compound I-0096, N-hydroxy-2-(5-(6-methoxypyridin-3-yl)-1H-pyrazolo[3,4-c]pyridin-1-yl)-3-phenylpropanamide], the IC50 under setting [1] is above 500 nM. On the same count and under the same terms, in the case of `O=C(NO)C(Cc1ccccc1)n1ncc2cc(-c3ccncc3)ncc21` (stereo not drawn) [Compound I-0097, N-hydroxy-3-phenyl-2-(5-(pyridin-4-yl)-1H-pyrazolo[3,4-c]pyridin-1-yl)propanamide] it was above 500 nM; in that of `O=C(NO)C(Cc1ccccc1)n1ncc2cc(C3CC3)ncc21` (stereo not drawn) [Compound I-0098, 2-(5-cyclopropyl-1H-pyrazolo[3,4-c]pyridin-1-yl)-N-hydroxy-3-phenylpropanamide], above 500 nM. On the same count and under the same terms, in the case of `O=C(NO)C(Cc1ccccc1)n1ncc2cc(Br)ncc21` (stereo not drawn) [Compound I-0099, 2-(5-bromo-1H-pyrazolo[3,4-c]pyridin-1-yl)-N-hydroxy-3-phenylpropanamide] it was above 500 nM; in that of `O=C(NO)C(Cc1ccccc1)n1cc2cc(Br)ncc2n1` (stereo not drawn) [Compound I-0100, 2-(5-bromo-2H-pyrazolo[3,4-c]pyridine-2-yl)-N-hydroxy-3-phenylpropanamide], above 500 nM; in that of `CN1CC=C(c2cccc3cn(C(Cc4ccccc4)C(=O)NO)nc23)CC1` (stereo not drawn) [Compound I-0101, N-hydroxy-2-(7-(1-methyl-1,2,3,6-tetrahydropyridin-4-yl)-2H-indazol-2-yl)-3-phenylpropanamide], above 500 nM. Regarding `O=C(NO)C(Cc1ccccc1)n1ncc2ccccc21` (stereo not drawn) [Compound I-0102, N-hydroxy-2-(1H-indazol-1-yl)-3-phenylpropanamide], under setting [1], the IC50 is above 500 nM. Regarding `Cc1nn(C)c(C)c1-c1ccc2c(cnn2C(Cc2ccccc2)C(=O)NO)c1` (stereo not drawn) [Compound I-0103, N-hydroxy-3-phenyl-2-(5-(1,3,5-trimethyl-1H-pyrazol-4-yl)-1H-indazol-1-yl)propanamide], the IC50 under setting [1] was in the range of 200 to 500 nM. On the same count and under the same terms, in the case of `O=C(NO)C(Cc1ccccc1)n1ncc2cc(-c3cccnc3)ccc21` (stereo not drawn) [Compound I-0104, N-hydroxy-3-phenyl-2-(5-(pyridin-3-yl)-1H-indazol-1-yl)propanamide] it was 50 to 200 nM; in that of `Cn1cc(-c2ccc3c(cnn3C(Cc3ccccc3)C(=O)NO)c2)cn1` (stereo not drawn) [Compound I-0105, N-hydroxy-2-(5-(1-methyl-1H-pyrazol-4-yl)-1H-indazol-1-yl)-3-phenylpropanamide], 50 to 200 nM; in that of `CN(C)C(=O)c1ccc(-c2ccc3c(cnn3C(Cc3ccccc3)C(=O)NO)c2)cc1` (stereo not drawn) [Compound I-0106, 4-(1-(1-(hydroxyamino)-1-oxo-3-phenylpropan-2-yl)-1H-indazol-5-yl)-N,N-dimethylbenzamide], 200 to 500 nM. Turning to `N/C(=N\O)c1cccc(-c2ccc3c(cnn3C(Cc3ccccc3)C(=O)NO)c2)c1` (stereo not drawn) [Compound I-0107, (Z)-N-hydroxy-2-(5-(3-(N′-hydroxy-carbamimid-oyl)phenyl)-1H-indazol-1-yl)-3-phenylpropanamide], the IC50 under setting [1] was in the range of 50 to 200 nM.
